Data on four molecules can be found in ChEMBL document CHEMBL1133065, “Lipopolyamines incorporating the tetraamine spermine, bound to an alkyl chain, sequester bacterial lipopolysaccharide” (Bioorg Med Chem Lett, 2000).

Molecules are shown by their SMILES.

One test deals with Nucleic Acid. Briefly: The compound was evaluated for binding affinity towards calf thymus DNA. Type of test: nucleic-acid assay. Particulars: Bos taurus.
Test [1] deals with J774.A1. Briefly: Inhibition of NO production by J774.A1 cells stimulated for 18 hr with Escherichia coli at 0.5 uM, measured as nitrite using the Griess assay; effectively inhibited. Particulars: Mus musculus. Type of test: functional, cell-based. (The Griess reaction detects nitrite, a stable product of nitric oxide.)
Test [2] concerns J774.A1. Nature of the test: Inhibition of TNF-alpha production by J774.A1 cells stimulated for 18 hr with Escherichia coli at 0.9 uM, by ELISA assay; effectively inhibited. It is filed as functional, cell-based. The settings on record: Mus musculus. On the technique in general: ELISA stands for enzyme-linked immunosorbent assay.

`CCCCCCCCCCCCCCCC(=O)NCCCNCCCCNCCCN` showed a C50 in the test on Nucleic Acid of 1.35 µM.

`CCCCCCCC/C=C/CCCCCCCC(=O)NCCCNCCCCNCCCN` yielded a C50 in the test on Nucleic Acid of 1.29 µM.

On to `CCCCCCCCCCCCCCCC(=O)NCCCNCCCNCCCCNCCCN`, for which the inhibition entry in the test with J774.A1 [1] and with J774.A1 [2] was “effectively inhibited” throughout. In the test on Nucleic Acid, this molecule returned a C50 of 0.9 µM.

In the test on Nucleic Acid, `CCCCCCCCCCCCCCCCCC(=O)NCCCNCCCCNCCCN` registered a C50 of 1.27 µM.
